Where two headings read alike, the source gives them in different places.

One assay has as its target T1, His6-TEV-PPARγ-(234-505) (Homo sapiens, UniProt P37231).
T1 construct: The His6-TEV-PPARγ-(234-505) protein for assay was expressed and purified; TEV cleavage site (N); made in house
T1 sequence (P37231 234-505): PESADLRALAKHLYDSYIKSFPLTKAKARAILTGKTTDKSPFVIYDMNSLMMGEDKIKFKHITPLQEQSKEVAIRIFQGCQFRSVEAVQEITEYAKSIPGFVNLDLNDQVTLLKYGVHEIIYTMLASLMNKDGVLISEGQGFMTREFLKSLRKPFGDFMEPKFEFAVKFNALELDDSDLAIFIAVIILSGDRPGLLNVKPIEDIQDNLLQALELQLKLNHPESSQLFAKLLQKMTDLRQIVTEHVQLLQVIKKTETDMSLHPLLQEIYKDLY
Description: TR-FRET Assay to Measure Co-R Peptide Recruitment to PPARγ. The class given is biochemical. Particulars: Co-R peptide (SMRT-ID2) recruitment; top final concentration 20 μM; read-out: TR-FRET i-Ag; AC50. The method in brief:
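His-tagged PPARγ (or controls) was preincubated with compound for 20 minutes at room temperature, then 5 nM anti-His terbium antibody and 200 nM FITC-labeled SMRT-ID2 corepressor peptide (final) were added for a further hour. TR-FRET signal was normalized to percent response using 500 nM T0070907 and DMSO controls.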

Another assay has as its system UM-UC-9 engineered cells. Put plainly: Cell proliferation / short-term viability assay, CellTiter-Glo 144 h. In kind it is cell-based, human. Particulars: read-out: CTGlo 144 h UMUC9.5, G150. The method in brief: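 UM-UC-9 engineered assay-ready cells seeded at 500 cells/well in high-glucose DMEM/10% FBS, treated from dose-response plates, grown at 37° C, 5% CO2. CellTiter-Glo 2.0 luminescence read on day 7, with a day-0 pretreatment plate as T0 reference and DMSO wells as negative control.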
On the technique in general: ATP-based viability assays read luminescence as a measure of living cells.

With `COc1cc(-c2cc(C(=O)N3CC[C@H](C(=O)NC(C)c4nnc(C5CC5)o4)CC34CC4)n[nH]2)c(F)cn1` (single isomer, unassigned) [Example 395-B], the AC50 at His6-TEV-PPARγ-(234-505) came to 671 nM. Further, the IC50 in the assay with UM-UC-9 engineered cells (Homo sapiens, UM-UC-9, 144 h) turned out to be 593 nM.

Take `COc1cc(-c2cc(C(=O)N3CC[C@H](C(=O)NC4CCC(N)(C(F)(F)F)CC4)CC34CC4)n[nH]2)c(F)cn1` (single isomer, unassigned) [Example 399-A]: at His6-TEV-PPARγ-(234-505), the AC50 amounted to 298 nM. In addition, the IC50 with UM-UC-9 engineered cells (Homo sapiens, UM-UC-9, 144 h) came to 176 nM.

Consider `COc1cc(-c2cc(C(=O)N3CCC(C(=O)NC4CCC(O)(C(F)(F)F)CC4)CC3(C)C)n[nH]2)c(F)cn1` (single isomer, unassigned) [Example 407-A], for which the AC50 on His6-TEV-PPARγ-(234-505) is 16 nM. In addition, the IC50 in the assay on UM-UC-9 engineered cells turned out to be 14 nM.

Regarding `COc1cc(-c2cc(C(=O)N3CCC(C(=O)NC4CCC(O)(C(F)(F)F)CC4)CC3(C)C)n[nH]2)c(F)cn1` (single isomer, unassigned) [Example 407-B], on His6-TEV-PPARγ-(234-505), the AC50 came out at 1690 nM. Further, the IC50 in the assay on UM-UC-9 engineered cells turned out to be 1340 nM.

In the case of `COc1cc(-c2cc(C(=O)N3CC[C@H](C(=O)NC4CCC(CO)(C(F)(F)F)CC4)CC34CC4)n[nH]2)c(F)cn1` (single isomer, unassigned) [Example 408-A], on His6-TEV-PPARγ-(234-505), the AC50 amounted to 4.5 nM. In addition, the IC50 in the assay with UM-UC-9 engineered cells is 3.9 nM.

As to `COc1cc(-c2cc(C(=O)N3CC[C@H](C(=O)NC(C)C45CCC(O)(CC4)CC5)CC34CC4)n[nH]2)c(F)cn1` (single isomer, unassigned) [Example 411-A], the AC50 on His6-TEV-PPARγ-(234-505) is 160 nM. For the same molecule, the IC50 with UM-UC-9 engineered cells was 527 nM.

Consider `COc1cc(-c2cc(C(=O)N3CC[C@H](C(=O)NC(C)c4cn5c(n4)COCC5)CC34CC4)n[nH]2)c(F)cn1` (single isomer, unassigned) [Example 415-A], for which the AC50 at His6-TEV-PPARγ-(234-505) came out at 88.1 nM. In the assay on UM-UC-9 engineered cells, the IC50 turned out to be 304 nM.

With `COc1cc(-c2cc(C(=O)N3CC[C@H](C(=O)NC(C)c4cn5c(n4)COCC5)CC34CC4)n[nH]2)c(F)cn1` (single isomer, unassigned) [Example 415-B], the AC50 on His6-TEV-PPARγ-(234-505) came to 283 nM. Also, in the assay with UM-UC-9 engineered cells, the IC50 stood at 867 nM.

On to `COc1cc(-c2cc(C(=O)N3CC[C@H](C(=O)NC4CCC(N5CCOCC5)CC4)CC34CC4)n[nH]2)c(F)cn1` (single isomer, unassigned) [Example 418-A], for which the AC50 at His6-TEV-PPARγ-(234-505) came out at 67.4 nM. Besides, the IC50 in the assay with UM-UC-9 engineered cells (Homo sapiens, UM-UC-9, 144 h) came out at 152 nM.

Take `COc1cc(-c2cc(C(=O)N3CC[C@H](C(=O)NC4CCC(C)(C)N(C)C4)CC34CC4)n[nH]2)c(F)cn1` (single isomer, unassigned) [Example 424-A]: the AC50 at His6-TEV-PPARγ-(234-505) amounted to 1030 nM. Also, in the assay on UM-UC-9 engineered cells, the IC50 stood at 2980 nM.

Turning to `COc1cc(-c2cc(C(=O)N3CC[C@H](C(=O)NC4CCC(C)(C)N(C)C4)CC34CC4)n[nH]2)c(F)cn1` (single isomer, unassigned) [Example 424-B], the AC50 at His6-TEV-PPARγ-(234-505) amounted to 209 nM. Also, the IC50 with UM-UC-9 engineered cells stood at 929 nM.

`COc1cc(-c2cc(C(=O)N3CC[C@H](C(=O)NC4CCN(CCF)C(C)(C)C4)CC34CC4)n[nH]2)c(F)cn1` (single isomer, unassigned) [Example 425-A]: the AC50 at His6-TEV-PPARγ-(234-505) was found to be 2510 nM. In the assay with UM-UC-9 engineered cells, the IC50 was more than 10000 nM.

For `COc1cc(-c2cc(C(=O)N3CC[C@H](C(=O)NC4CCN(CCF)C(C)(C)C4)CC34CC4)n[nH]2)c(F)cn1` (single isomer, unassigned) [Example 425-B], the AC50 on His6-TEV-PPARγ-(234-505) was found to be 917 nM. Also, the IC50 in the assay on UM-UC-9 engineered cells is more than 10000 nM.

In the case of `COc1cc(-c2cc(C(=O)N3CC[C@H](C(=O)NC4CN(C5CCOC5)C4)CC34CC4)n[nH]2)c(F)cn1` (single isomer, unassigned) [Example 433-A], at His6-TEV-PPARγ-(234-505), the AC50 turned out to be 126 nM. Further, the IC50 in the assay with UM-UC-9 engineered cells worked out at 347 nM.

For `COc1cc(-c2cc(C(=O)N3CC[C@H](C(=O)NC4CN(C5CCOC5)C4)CC34CC4)n[nH]2)c(F)cn1` (single isomer, unassigned) [Example 433-B], at His6-TEV-PPARγ-(234-505), the AC50 worked out at 61.1 nM. Further, in the assay on UM-UC-9 engineered cells, the IC50 worked out at 249 nM.

For the molecule `COc1cc(-c2cc(C(=O)N3CC[C@H](C(=O)Nc4cnn5ccc(C(C)O)nc45)CC34CC4)n[nH]2)c(F)cn1` (single isomer, unassigned) [Example 445-A], the AC50 at His6-TEV-PPARγ-(234-505) was found to be 0.6 nM. The IC50 in the assay on UM-UC-9 engineered cells was found to be 15.4 nM.

For the molecule `COc1cc(-c2cc(C(=O)N3CC[C@H](C(=O)Nc4cnn5ccc(C(C)O)nc45)CC34CC4)n[nH]2)c(F)cn1` (single isomer, unassigned) [Example 445-B], the AC50 on His6-TEV-PPARγ-(234-505) is 11 nM. Moreover, in the assay with UM-UC-9 engineered cells, the IC50 was 116 nM.

Regarding `COc1cc(-c2cc(C(=O)N3CC[C@H](C(=O)NC4CCN(c5ccnc6[nH]ncc56)C4)CC34CC4)n[nH]2)c(F)cn1` (single isomer, unassigned) [Example 450-A], on His6-TEV-PPARγ-(234-505), the AC50 was 3.3 nM. In addition, the IC50 in the assay on UM-UC-9 engineered cells is 162 nM.

`COc1cc(-c2cc(C(=O)N3CC[C@H](C(=O)NC4CCN(c5ccnc6[nH]ncc56)C4)CC34CC4)n[nH]2)c(F)cn1` (single isomer, unassigned) [Example 450-B]: the AC50 on His6-TEV-PPARγ-(234-505) was determined as 6.8 nM. For the same molecule, the IC50 in the assay with UM-UC-9 engineered cells was determined as 834 nM.

For `COc1cc(-c2cc(C(=O)N3CC[C@H](C(=O)NC4CCN(c5cnnc(C)c5)C4)CC34CC4)n[nH]2)c(F)cn1` (single isomer, unassigned) [Example 452-A], the AC50 at His6-TEV-PPARγ-(234-505) stood at 8.7 nM. The IC50 with UM-UC-9 engineered cells came out at 2010 nM.

On to `COc1cc(-c2cc(C(=O)N3CC[C@H](C(=O)NC4CCN(c5cnnc(C)c5)C4)CC34CC4)n[nH]2)c(F)cn1` (single isomer, unassigned) [Example 452-B], for which, on His6-TEV-PPARγ-(234-505), the AC50 worked out at 142 nM. For the same molecule, the IC50 in the assay with UM-UC-9 engineered cells is more than 10000 nM.

As to `COc1cc(-c2cc(C(=O)N3CC[C@H](C(=O)NC4CCN(c5cnc(C)nc5)C4)CC34CC4)n[nH]2)c(F)cn1` (single isomer, unassigned) [Example 453-A], on His6-TEV-PPARγ-(234-505), the AC50 worked out at 6 nM. Further, the IC50 in the assay with UM-UC-9 engineered cells came to 14.7 nM.

As to `COc1cc(-c2cc(C(=O)N3CC[C@H](C(=O)NC4CCN(c5cnc(C)nc5)C4)CC34CC4)n[nH]2)c(F)cn1` (single isomer, unassigned) [Example 453-B], the AC50 at His6-TEV-PPARγ-(234-505) came to 8.2 nM. The IC50 in the assay on UM-UC-9 engineered cells was 398 nM.

Turning to `COc1cc(-c2cc(C(=O)N3CC[C@H](C(=O)NC4CCN(CC5(O)COC5)C4)CC34CC4)n[nH]2)c(F)cn1` (single isomer, unassigned) [Example 454-A], the AC50 on His6-TEV-PPARγ-(234-505) turned out to be 88.7 nM. Further, the IC50 with UM-UC-9 engineered cells turned out to be 1790 nM.

With `COc1cc(-c2cc(C(=O)N3CC[C@H](C(=O)NC4CCN(CC5(O)COC5)C4)CC34CC4)n[nH]2)c(F)cn1` (single isomer, unassigned) [Example 454-B], the AC50 at His6-TEV-PPARγ-(234-505) turned out to be 100 nM. Further, in the assay with UM-UC-9 engineered cells, the IC50 was 1880 nM.

With `COc1cc(-c2cc(C(=O)N3CC[C@H](C(=O)NC4CCN(CC(F)(F)CO)C4)CC34CC4)n[nH]2)c(F)cn1` (single isomer, unassigned) [Example 459-A], the AC50 at His6-TEV-PPARγ-(234-505) amounted to 8 nM. In addition, in the assay with UM-UC-9 engineered cells, the IC50 came to 275 nM.

Regarding `COc1cc(-c2cc(C(=O)N3CC[C@H](C(=O)NC4CCN(CC(F)(F)CO)C4)CC34CC4)n[nH]2)c(F)cn1` (single isomer, unassigned) [Example 459-B], at His6-TEV-PPARγ-(234-505), the AC50 turned out to be 13.1 nM. For the same molecule, the IC50 in the assay on UM-UC-9 engineered cells amounted to 83.4 nM.

Turning to `COc1cc(-c2cc(C(=O)N3CC[C@H](C(=O)NC4CCN(C5COC56CNC6)C4)CC34CC4)n[nH]2)c(F)cn1` (single isomer, unassigned) [Example 461-A], the AC50 on His6-TEV-PPARγ-(234-505) was 272 nM. The IC50 in the assay on UM-UC-9 engineered cells is more than 10000 nM.
